Measured values taken from US20170050957A1, “4-AMINO-6-(HETEROCYCLIC)PICOLINATES AND 6-AMINO-2-(HETEROCYCLIC)PYRIMIDINE-4-CARBOXYLATES AND THEIR USE AS HERBICIDES” (Dow AgroSciences LLC, priority 2013, published 2017).
Read-outs that look alike come from different tables or passages of the source. Blank lines part the entries; values can stand above or below the molecule they belong to.

Tests used:
[1] = tested on: Key Broadleaf Weed and Crop Species; assay: Post-emergent Test II herbicidal activity (Table 15); format: in vivo; settings: post-emergence, 336 h, 14 d; for pest or weed control at 35 g/ha: 35 g ai/ha; for pest or weed control at 70 g/ha: 70 g ai/ha; for pest or weed control at 140 g/ha: 140 g ai/ha
How it was run: (§1)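 Plants grown in greenhouse (~15 h photoperiod, 23-29 °C day, 22-28 °C night) to first or second true leaf stage, then sprayed post-emergence at 187 L/ha with a high rate and 1/2×, 1/4×, 1/8× and 1/16× dilutions. Injury scored visually after 14 d, 0-100% versus untreated plants.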

[2] = tested on: Key Grass and Sedge Weeds as well as Grass Crops; assay: Post-emergent Test II herbicidal activity (Table 16); format: in vivo; settings: post-emergence, 336 h, 14 days after application; for pest or weed control at 35 g/ha: 35 g ai/ha; for pest or weed control at 70 g/ha: 70 g ai/ha; for pest or weed control at 140 g/ha: 140 g ai/ha
How it was run: as §1

[3] = Abutilon theophrasti, velvetleaf (Abutilon theophrasti), read-out: Visual Growth Reduction (%) 14 Days After Application, ABUTH
[4] = Amaranthus retroflexus, redroot pigweed (Amaranthus retroflexus), read-out: Visual Growth Reduction (%) 14 Days After Application, AMARE
[5] = Brassica napus, oilseed rape, canola (Brassica napus), read-out: Visual Growth Reduction (%) 14 Days After Application, BRSNN
[6] = Chenopodium album, lambsquarters (Chenopodium album), read-out: Visual Growth Reduction (%) 14 Days After Application, CHEAL
[7] = Euphorbia heterophylla, wild poinsettia (Euphorbia heterophylla), read-out: Visual Growth Reduction (%) 14 Days After Application, EPHHL
[8] = Helianthus annuus, sunflower (Helianthus annuus), read-out: Visual Growth Reduction (%) 14 Days After Application, HELAN
[9] = Cyperus esculentus, yellow nutsedge (Cyperus esculentus), read-out: Visual Growth Reduction (%) 14 Days After Application CYPES
[10] = Echinochloa crus-galli, barnyardgrass (Echinochloa crus-galli), read-out: Visual Growth Reduction (%) 14 Days After Application ECHCG
[11] = Oryza sativa, rice (Oryza sativa), read-out: Visual Growth Reduction (%) 14 Days After Application ORYSA
[12] = Setaria faberi, giant foxtail (Setaria faberi), read-out: Visual Growth Reduction (%) 14 Days After Application SETFA
[13] = Triticum aestivum, wheat, spring (Triticum aestivum), read-out: Visual Growth Reduction (%) 14 Days After Application TRZAS
[14] = Zea mays, maize, corn (Zea mays), read-out: Visual Growth Reduction (%) 14 Days After Application ZEAMX

melting point: 168 °C
Structure (SMILES): COC(=O)c1nc(-c2cc3sccc3cc2F)nc(N)c1OC [Compound 3.22]
pest or weed control at 35 g/ha [1, 3]: 0 to 29%
pest or weed control at 70 g/ha [1, 3]: 0 to 29%
pest or weed control at 140 g/ha [1, 3]: 0 to 29%
pest or weed control at 35 g/ha [1, 4]: 60 to 74%
pest or weed control at 70 g/ha [1, 4]: 95 to 100%
pest or weed control at 140 g/ha [1, 4]: 95 to 100%
pest or weed control at 35 g/ha [1, 5]: 0 to 29%
pest or weed control at 70 g/ha [1, 5]: 30 to 44%
pest or weed control at 140 g/ha [1, 5]: 60 to 74%
pest or weed control at 35 g/ha [1, 6]: 60 to 74%
pest or weed control at 70 g/ha [1, 6]: 75 to 84%
pest or weed control at 140 g/ha [1, 6]: 85 to 94%
pest or weed control at 35 g/ha [1, 7]: 95 to 100%
pest or weed control at 70 g/ha [1, 7]: 95 to 100%
pest or weed control at 140 g/ha [1, 7]: 95 to 100%
pest or weed control at 35 g/ha [1, 8]: 75 to 84%
pest or weed control at 70 g/ha [1, 8]: 85 to 94%
pest or weed control at 140 g/ha [1, 8]: 85 to 94%
pest or weed control at 35 g/ha [2, 9]: 0 to 29%
pest or weed control at 70 g/ha [2, 9]: 0 to 29%
pest or weed control at 140 g/ha [2, 9]: 0 to 29%
pest or weed control at 35 g/ha [2, 10]: 0 to 29%
pest or weed control at 70 g/ha [2, 10]: 0 to 29%
pest or weed control at 140 g/ha [2, 10]: 0 to 29%
pest or weed control at 35 g/ha [2, 11]: 0 to 29%
pest or weed control at 70 g/ha [2, 11]: 0 to 29%
pest or weed control at 140 g/ha [2, 11]: 0 to 29%
pest or weed control at 35 g/ha [2, 12]: 0 to 29%
pest or weed control at 70 g/ha [2, 12]: 0 to 29%
pest or weed control at 140 g/ha [2, 12]: 0 to 29%
pest or weed control at 35 g/ha [2, 13]: 0 to 29%
pest or weed control at 70 g/ha [2, 13]: 0 to 29%
pest or weed control at 140 g/ha [2, 13]: 0 to 29%
pest or weed control at 35 g/ha [2, 14]: 0 to 29%
pest or weed control at 70 g/ha [2, 14]: 0 to 29%
pest or weed control at 140 g/ha [2, 14]: 0 to 29%

melting point: 143 to 146 °C
Structure (SMILES): COC(=O)c1nc(-c2ccc3ccsc3c2)c(C)c(N)c1Cl [Compound 3.18]
pest or weed control at 35 g/ha [1, 3]: 60 to 74%
pest or weed control at 70 g/ha [1, 3]: 75 to 84%
pest or weed control at 140 g/ha [1, 3]: 75 to 84%
pest or weed control at 35 g/ha [1, 4]: 60 to 74%
pest or weed control at 70 g/ha [1, 4]: 75 to 84%
pest or weed control at 140 g/ha [1, 4]: 95 to 100%
pest or weed control at 35 g/ha [1, 5]: 0 to 29%
pest or weed control at 70 g/ha [1, 5]: 0 to 29%
pest or weed control at 140 g/ha [1, 5]: 0 to 29%
pest or weed control at 35 g/ha [1, 6]: 30 to 44%
pest or weed control at 70 g/ha [1, 6]: 60 to 74%
pest or weed control at 140 g/ha [1, 6]: 60 to 74%
pest or weed control at 35 g/ha [1, 7]: 45 to 59%
pest or weed control at 70 g/ha [1, 7]: 0 to 29%
pest or weed control at 140 g/ha [1, 7]: 30 to 44%
pest or weed control at 35 g/ha [1, 8]: 95 to 100%
pest or weed control at 70 g/ha [1, 8]: 95 to 100%
pest or weed control at 140 g/ha [1, 8]: 95 to 100%
pest or weed control at 35 g/ha [2, 9]: 0 to 29%
pest or weed control at 70 g/ha [2, 9]: 0 to 29%
pest or weed control at 140 g/ha [2, 9]: 0 to 29%
pest or weed control at 35 g/ha [2, 10]: 0 to 29%
pest or weed control at 70 g/ha [2, 10]: 0 to 29%
pest or weed control at 140 g/ha [2, 10]: 0 to 29%
pest or weed control at 35 g/ha [2, 11]: 0 to 29%
pest or weed control at 70 g/ha [2, 11]: 0 to 29%
pest or weed control at 140 g/ha [2, 11]: 0 to 29%
pest or weed control at 35 g/ha [2, 12]: 0 to 29%
pest or weed control at 70 g/ha [2, 12]: 0 to 29%
pest or weed control at 140 g/ha [2, 12]: 0 to 29%
pest or weed control at 35 g/ha [2, 13]: 0 to 29%
pest or weed control at 70 g/ha [2, 13]: 0 to 29%
pest or weed control at 140 g/ha [2, 13]: 0 to 29%
pest or weed control at 35 g/ha [2, 14]: 0 to 29%
pest or weed control at 70 g/ha [2, 14]: 0 to 29%
pest or weed control at 140 g/ha [2, 14]: 0 to 29%

melting point: 156 to 159 °C
Structure (SMILES): COC(=O)c1nc(-c2ccc3c(cnn3C)c2)c(F)c(N)c1Cl [Compound 4.03]
pest or weed control at 35 g/ha [1, 3]: 0 to 29%
pest or weed control at 70 g/ha [1, 3]: 0 to 29%
pest or weed control at 140 g/ha [1, 3]: 0 to 29%
pest or weed control at 35 g/ha [1, 4]: 0 to 29%
pest or weed control at 70 g/ha [1, 4]: 45 to 59%
pest or weed control at 140 g/ha [1, 4]: 75 to 84%
pest or weed control at 35 g/ha [1, 5]: 0 to 29%
pest or weed control at 70 g/ha [1, 5]: 0 to 29%
pest or weed control at 140 g/ha [1, 5]: 0 to 29%
pest or weed control at 35 g/ha [1, 6]: 95 to 100%
pest or weed control at 70 g/ha [1, 6]: 95 to 100%
pest or weed control at 140 g/ha [1, 6]: 95 to 100%
pest or weed control at 35 g/ha [1, 7]: 45 to 59%
pest or weed control at 70 g/ha [1, 7]: 60 to 74%
pest or weed control at 140 g/ha [1, 7]: 75 to 84%
pest or weed control at 35 g/ha [1, 8]: 0 to 29%
pest or weed control at 70 g/ha [1, 8]: 45 to 59%
pest or weed control at 140 g/ha [1, 8]: 60 to 74%
pest or weed control at 35 g/ha [2, 9]: 0 to 29%
pest or weed control at 70 g/ha [2, 9]: 0 to 29%
pest or weed control at 140 g/ha [2, 9]: 0 to 29%
pest or weed control at 35 g/ha [2, 10]: 60 to 74%
pest or weed control at 70 g/ha [2, 10]: 75 to 84%
pest or weed control at 140 g/ha [2, 10]: 75 to 84%
pest or weed control at 35 g/ha [2, 11]: 0 to 29%
pest or weed control at 70 g/ha [2, 11]: 0 to 29%
pest or weed control at 140 g/ha [2, 11]: 0 to 29%
pest or weed control at 35 g/ha [2, 13]: 0 to 29%
pest or weed control at 70 g/ha [2, 13]: 0 to 29%
pest or weed control at 140 g/ha [2, 13]: 0 to 29%
pest or weed control at 35 g/ha [2, 14]: 0 to 29%
pest or weed control at 70 g/ha [2, 14]: 0 to 29%
pest or weed control at 140 g/ha [2, 14]: 0 to 29%
